The values below come from ChEMBL document CHEMBL4007400, “Role of Reactive Oxygen Species (ROS) in Therapeutics and Drug Resistance in Cancer and Bacteria” (J Med Chem, 2017).

This test deals with T1, 4,4'-diapophytoene synthase (Staphylococcus aureus, UniProt A9JQL9).
T1 sequence (A9JQL9 whole entry): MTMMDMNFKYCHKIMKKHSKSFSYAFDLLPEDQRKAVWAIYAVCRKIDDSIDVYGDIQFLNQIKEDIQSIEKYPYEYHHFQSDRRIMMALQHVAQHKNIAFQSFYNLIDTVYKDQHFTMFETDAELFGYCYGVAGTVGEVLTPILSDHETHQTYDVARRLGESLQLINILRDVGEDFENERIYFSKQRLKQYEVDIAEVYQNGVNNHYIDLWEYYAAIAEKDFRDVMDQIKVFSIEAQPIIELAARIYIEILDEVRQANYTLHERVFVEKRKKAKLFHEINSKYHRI
The test can be described thus: Inhibition of Staphylococcus aureus ATCC 27659 histidine-tagged full length CrtM expressed in Escherichia coli BL21(DE3) cells assessed as decrease in staphyloxanthin formation after 30 mins by continous spectrophotometric method.

As usually defined, the Ki is the equilibrium dissociation constant of an inhibitor or competing ligand from its target. On to `O=P(O)(O)C(CCCc1cccc(Oc2ccccc2)c1)S(=O)(=O)O` (stereo unspecified), for which the Ki amounted to 1.5 nM.
